As usually defined, the IC50 is the concentration that inhibits the measured activity by half. A lower IC50 goes with higher potency. What is called Ki is the equilibrium dissociation constant of an inhibitor or competing ligand from its target. A lower Ki goes with a stronger hold on the target.

The target of this assay is HIV-1 protease (Human immunodeficiency virus, UniProt O90785). As to the kind of experiment: Fluorometric Assay. The source says: The Ki value were determine by a fluorometric assay with the fluorogenic and chromogenic substrate.
Sequence of HIV-1 protease (O90785 whole entry): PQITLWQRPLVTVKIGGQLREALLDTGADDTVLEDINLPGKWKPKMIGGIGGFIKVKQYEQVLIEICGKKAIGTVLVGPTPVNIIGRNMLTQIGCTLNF
With `Cc1ccccc1C(=O)N[C@@H](Cc1ccccc1)C[C@H](O)[C@H](Cc1ccccc1)NC(=O)c1ccccc1C` [3-Hexanol derivative, 2], the IC50 is 3 nM and affinity was put at a Ki of 4.8 nM.

`CC(C)[C@@H](C(=O)N[C@@H](Cc1ccccc1)[C@@H](O)C[C@H](Cc1ccccc1)NC(=O)OC(C)(C)C)N(C)C(=O)OCc1ccccn1` [3-Hexanol derivative, 4] displayed an IC50 of 0.17 nM and a Ki of 0.021 nM.

The molecule `Cc1c(O)cccc1C(=O)N[C@@H](Cc1ccccc1)[C@@H](O)C[C@H](Cc1ccccc1)NC(=O)c1ccccc1` [3-Hexanol derivative, 1] gave an IC50 of 1 nM and a Ki of 4.6 nM.

`Cc1c(O)cccc1C(=O)N[C@@H](Cc1ccccc1)[C@@H](O)C[C@H](Cc1ccccc1)NC(=O)OC1CCOC1` (stereo partly drawn) [3-Hexanol derivative, 3] displayed a 50% inhibitory concentration (IC50) of 0.63 nM and a Ki of 0.32 nM.
